In US12257239B1, “Cytotoxic treatment of cancer cells” (IMAM MOHAMMAD IBN SAUD ISLAMIC UNIVERSITY, priority 2024, dated 2025) one finds IC50, inhibition and growth inhibition percentage data, which are given here for 2 compounds.

SMILES strings stand for the structures. In brackets after ≈: the same amount, converted by molar mass.

What is called IC50 is the point on the concentration scale where inhibition reaches its midpoint. Read a low IC50 as higher potency. As a reminder, the inhibition is how much of the control response was suppressed.

One series deals with cervical cancer (HeLa). The experiment in a line: Growth inhibition of cancerous cells, HeLa. The format is cell-based. The conditions noted are these: Homo sapiens. How it is done: (§1) The compound of Formula I was tested for its antitumor activity against various cancer cell lines, in vitro, in non-small cell lung cancer (A549), colorectal carcinoma (HCT116), prostate cancer (PC3), pharynx squamous carcinoma (FaDu), triple-negative breast cancer (MDA-MB-468), cervical cancer (HeLa), and human oral epithelial normal cell line (OEC).

Series [1] deals with human oral epithelial normal cell line (OEC). The conditions noted are these: 100 μg/mL. How it is done: as §1
The subject of series [2] is human non-small cell lung cancer (A549). Briefly: Growth inhibition of cancerous cells, A549. The format is cell-based. The following applies: for IC50: A549. How it is done: as §1
The subject of series [3] is pharynx squamous carcinoma (FaDu). Briefly: Growth inhibition of cancerous cells, FaDu. The format is cell-based. The conditions noted are these: Homo sapiens. How it is done: as §1
The next series relates to prostate cancer (PC3). The experiment in a line: Growth inhibition of cancerous cells, PC3. The format is cell-based. The following applies: Homo sapiens; PC3, 100 μg/mL; read-out: growth inhibition percentage. How it is done: as §1
Series [4] relates to colorectal carcinoma (HCT116). Briefly: Growth inhibition of cancerous cells, HCT116. The format is cell-based. The conditions noted are these: Homo sapiens, HCT-116; HCT116, 100 μg/mL; read-out: growth inhibition percentage. The method, then:
as §1

In series [5] the test system is triple-negative breast cancer (MDA-MB-468). The experiment in a line: Growth inhibition of cancerous cells, MDA-MB-468. The format is cell-based. The conditions noted are these: Homo sapiens; for IC50: MDA-MB-468. How it is done:
as §1

[6] abbreviates: 100 μg/mL, read-out: growth inhibition percentage.

For `O=C1S/C(=C\c2cc([N+](=O)[O-])ccc2O)C(=O)N1CCN1C(=O)c2ccccc2C1=O` [Formula I, 3-(2-(1,3-dioxoisoindolin-2-yl)ethyl)-5-(2-hydroxy-5-nitrobenzylidene)thiazolidine-2,4-dione], the 50% inhibitory concentration (IC50) with cervical cancer (HeLa) was 5.03 µg/mL; in series [2], 6 µg/mL; in series [3] it was 5.03 µg/mL; in series [5], 5.5 µg/mL. Also, the inhibition at 100 µg/mL in the series on cervical cancer (HeLa) (setting [6]) was found to be 70.8%; in series [2] (A549, 100 μg/mL, read-out: growth inhibition percentage), 78%; in series [3] (setting [6]) it was 89.1%; in the series with prostate cancer (PC3), 83.8%; in series [4], 85.7%; in series [5] (MDA-MB-468, 100 μg/mL, read-out: growth inhibition percentage) it was 90.8%. The same compound gave a growth inhibition percentage in series [1] of 48.89%.

`COc1cccc2c1C(=O)c1c(O)c3c(c(O)c1C2=O)C[C@@](O)(C(=O)CO)C[C@@H]3O[C@H]1C[C@H](N)[C@H](O)[C@H](C)O1` [doxorubicin, reference compound]: the half-inhibitory concentration (IC50) in the series on cervical cancer (HeLa) was found to be 4.83 µg/mL (≈ 8.89 µM); in series [2], 7.63 µg/mL (≈ 14 µM); in series [3] it was 13.2 µg/mL (≈ 24.2 µM); in series [5], 7.76 µg/mL (≈ 14.3 µM).
